This is an account of results in US4857650A, “Novel renin inhibitory amino acid derivatives” (Kissei Pharmaceutical Co., Ltd., priority 1985, dated 1989).

SMILES strings stand for the structures.

In assay [1] the target is T1, human renin (Homo sapiens, UniProt P00797).
T1 sequence (P00797 67-406): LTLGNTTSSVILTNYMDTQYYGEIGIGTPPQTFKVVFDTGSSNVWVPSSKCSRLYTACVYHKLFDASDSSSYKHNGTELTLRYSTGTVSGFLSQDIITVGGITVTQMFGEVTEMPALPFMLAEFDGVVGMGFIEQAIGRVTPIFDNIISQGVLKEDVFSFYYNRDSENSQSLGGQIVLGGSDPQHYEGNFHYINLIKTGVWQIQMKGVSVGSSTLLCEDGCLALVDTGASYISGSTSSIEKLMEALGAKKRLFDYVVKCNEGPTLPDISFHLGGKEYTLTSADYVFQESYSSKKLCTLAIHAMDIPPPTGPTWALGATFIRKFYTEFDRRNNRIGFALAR
The conditions noted are these: 106th Annual Meeting of the Pharmaceutical Society of Japan (April, 1986)/Meeting of Japanese Circulation Journal (March, 1986); cited from earlier work.

The target in assay [2] is T1, human renin. The assay can be described thus: Human renin-sheep renin substrate reaction system in vitro. The assay is classed as biochemical. The conditions noted are these: pH 7.4, 15 minutes at 37° C., read-out: IC50 (molar concentration). The procedure: Human resin-sheep resin substrate reaction system in vitro To a mixture containing 200 μl of a 125 mM pyrophosphate buffer (pH 7.4), 25 μl of a 20 mM aqueous solution of […] as an angiotensin converting enzyme inhibitor, 50 μl of semipurified sheep renin substrate ([…]), 50 μl of dimethyl sulfoxide solution of an amino acid derivative of the present invention (or 50 μl of dimethyl sulfoxide as a control) and 150 μl of deionized water was added 25 μl of purified human renin (20-30 ng angiotensin I/ml/hr). The mixture was incubated for 15 minutes on a water bath at 37° C., and the reaction mixture was allowed to stand for 5 minutes on a water bath at 100° C. to stop the reaction. After cooling, 200 μl of the solution were taken up and the amount of angiotensin I produced by the addition of renin was determined by radioimmunoassay. The inhibitory effect was calculated by the following equation. [formula] The molar concentration which produced 50% inhibition (IC50) was calculated from the inhibition value obtained, and the results are shown below.

Assay [3] deals with T2, renin in human high renin plasma (Homo sapiens, UniProt P00797).
T2 construct: 500 μl of human high renin plasma; from tissue; host or cells: human high renin plasma
T2 sequence (P00797 67-406): T1 sequence (P00797 67-406)
The assay can be described thus: Renin inhibitory effect in a human high renin plasma. Format: biochemical. The conditions noted are these: pH 7.4, 30 minutes at 37° C., read-out: IC50 (molar concentration). As for the experimental part:
Renin inhibitory effect in a human high renin plasma A mixture of 350 μl of a 0.5M phosphate buffer containing 14 mM EDTA 2Na and a 0.3% neomycin sulfate, which was adjusted to the pH of 7.4, 50 μl of a 20 mM an aqueous solution of […] as an angiotensin converting enzyme inhibitor and 100 μl of dimethyl sulfoxide solution containing an amino acid compound of the present invention was added to 500 μl of human high renin plasma. […] was incubated for 30 minutes at 37° C. in a water bath. A 200 μl sample was withdrawn from the incubated mixture, chilled immediately in an ice bath, and the amount of angiotensin I produced was determined by radioimmunoassay, and remaining of the mixture (200 μ[…] 4° C. in an ice bath. The amount of angiotensin I produced in the incubated mixture at 4° C. in an ice bath was determined by radioimmunoassay. As a control, the same procedure as above was carried out by using 100 μl of dimethyl sulfoxide alone in place of the 100 μl of dimethyl sulfoxide solution containing an amino acid compound of the present invention. The inhibitory effect was calculated by the following equation. [formula] The molar concentration which produced 50% inhibition (IC50) was calculated from the inhibition value obtained, and the results are shown below.

For another assay, the system named is common marmoset. In words: Hypotensive effect in marmoset (furosemide-induced high renin state). Format: in vivo. The conditions noted are these: oral. As for the experimental part:
The experiment was carried out by using common marmoset as described in K. G. Hofbauer et al., Clinical and Experimental hypertension, Vol. A5, Nos. 7 & 8 (1983), pages 1237-1247.
Furosemide was orally administered three times to common marmoset at 15 mg per kilogram per day every other day to create a high renin state. Blood pressure of conscious marmoset was measured 2 days after the last administration of furosemide.
Measurement of blood pressure
Two conscious male marmosets weighing 365-380 g were fixed. Mean blood pressure at tail artery was recorded on pretismograph instument. The amino acid compound of the present invention, administered orally using a catheter.

Setting [4] is: 100 mg/kg, n = 2, 1 hour after administration, control 94.0 in (a), 90.9 in (c).
Where [5] appears, read: 100 mg/kg, n = 2, 2 hours after administration, control 94.0 in (a), 90.9 in (c).
Setting [6] is: 100 mg/kg, n = 2, 3 hours after administration, control 94.0 in (a), 90.9 in (c).
The mark [7] stands for this setting: 100 mg/kg, n = 2, 5 hours after administration, control 94.0 in (a), 90.9 in (c).
[8] abbreviates: 100 mg/kg, n = 2, 7 hours after administration, control 94.0 in (a), 90.9 in (c).

`CC(C)CC(NC(=O)[C@H](Cc1c[nH]cn1)NC(=O)C(CC(=O)N1CCOCC1)Cc1cccc2ccccc12)C(O)C(=O)OC(C)C` (stereo partly drawn): the “human renin inhibitory activity” value on human renin [1] is reported as “human renin inhibitory activity”.

As to `COC(=O)CC(Cc1cccc2ccccc12)C(=O)N[C@@H](Cc1c[nH]cn1)C(=O)N[C@@H](CC(C)C)C(O)C(=O)OC(C)C` (mixture of isomers) [Isopropyl (2RS,3S)-3-[3-(methoxycarbonyl)-2-(1-naphthylmethyl)propionyl-L-histidyl]amino-2-hydroxy-5-methylhexanoate], the values for the IC50 (on human renin [2]; in assay [3]) were 25 nM and 56 nM, respectively. In addition, the Blood pressure is 78.6 mmHg in the assay with common marmoset (setting [4]); 76.9 mmHg with common marmoset (setting [5]); 69.4 mmHg in the assay on common marmoset (setting [6]); 76.0 mmHg with common marmoset (setting [7]); 77.8 mmHg in the assay with common marmoset (setting [8]); 85.3 mmHg in the assay on common marmoset (100 mg/kg, n = 2, 9 hours after administration, control 90.9 in (c)).

Take `COC(=O)CN(C)C(=O)CC(Cc1cccc2ccccc12)C(=O)N[C@@H](Cc1c[nH]cn1)C(=O)N[C@@H](CC(C)C)C(O)C(=O)OC(C)C` (mixture of isomers) [Isopropyl(2RS,3S)-3-{N-[2-(1-naphthylmethyl)-3-(N-methyl-N-methoxycarbonylmethylcarbamoyl)propionyl]-L-histidyl}amino-2-hydroxy-5-methylhexanoate]: the IC50 at human renin [2] amounted to 17 nM; in assay [3] it was 20 nM. The Blood pressure with common marmoset (30 mg/kg, n = 2, 1 hour after administration, control 95.4) worked out at 62.1 mmHg; in the assay on common marmoset (30 mg/kg, n = 2, 2 hours after administration, control 95.4), 59.8 mmHg; in the assay on common marmoset (30 mg/kg, n = 2, 3 hours after administration, control 95.4), 66.5 mmHg; with common marmoset (30 mg/kg, n = 2, 5 hours after administration, control 95.4), 84.9 mmHg; in the assay with common marmoset (30 mg/kg, n = 2, 7 hours after administration, control 95.4), 88.3 mmHg.

Turning to `COC(=O)[C@@H]1CCCN1C(=O)CC(Cc1cccc2ccccc12)C(=O)N[C@@H](Cc1c[nH]cn1)C(=O)N[C@@H](CC(C)C)C(O)C(=O)OC(C)C` (stereo partly drawn) [Isopropyl(2RS,3S)-3-{N-[2-(1-naphthylmethyl)-3-(2S-methoxycarbonylpyrrolidinocarbonyl)propionyl]-L-histidyl}-amino-2-hydroxy-5-methylhexanoate], the IC50 at human renin [2] is 52 nM; in assay [3] it was 50 nM. In addition, the Blood pressure worked out at 77.5 mmHg in the assay with common marmoset (setting [4]); 74.0 mmHg in the assay on common marmoset (setting [5]); 70.0 mmHg with common marmoset (setting [6]); 92.2 mmHg in the assay with common marmoset (setting [7]); 101.5 mmHg in the assay on common marmoset (setting [8]).

Turning to `COC(=O)[C@H]1CCCN1C(=O)CC(Cc1cccc2ccccc12)C(=O)N[C@@H](Cc1c[nH]cn1)C(=O)N[C@@H](CC(C)C)C(O)C(=O)OC(C)C` (stereo partly drawn) [Isopyl(2RS,3S)-3-{N-[2-(1-naphthylmethyl)-3-(2R-methoxycarbonylpyrrolidinocarbonyl)propionyl]-L-histidyl}amino-2-hydroxy-5-methylhexanoate], the IC50 at human renin [2] worked out at 28 nM; in assay [3], 15 nM.

Turning to `COC(=O)C(O)[C@H](CC(C)C)NC(=O)[C@H](Cc1c[nH]cn1)NC(=O)C(CC(=O)N1CCC[C@H]1C(=O)OC)Cc1cccc2ccccc12` (stereo partly drawn) [Methyl(2RS,3S)-3-{N-[2-(1-naphthylmethyl)-3-(2S-methoxycarbonylpyrrolidinocarbonyl)propionyl]-L-histidyl}amino-2-hydroxy-5-methylhexanoate], the IC50 turned out to be 40 nM on human renin [2] and 53 nM in assay [3].

As to `COC(=O)[C@@H]1CCCN1C(=O)CC(Cc1cccc2ccccc12)C(=O)N[C@@H](Cc1c[nH]cn1)C(=O)N[C@@H](CC(C)C)[C@@H](O)CC(=O)NCCC(C)C` (stereo partly drawn) [N-[2-(1-Naphthylmethyl)-3-(2S-methoxycarbonylpyrrolidinocarbonyl)propionyl]-L-histidyl-statylisoamylamide], the IC50 on human renin [2] is 120 nM; in assay [3] it was 220 nM.

For the compound `COC(=O)CN(C)C(=O)CC(Cc1cccc2ccccc12)C(=O)N[C@@H](Cc1c[nH]cn1)C(=O)N[C@@H](CC(C)C)[C@@H](O)CC(=O)NCCC(C)C` (stereo partly drawn) [N-[2-(1-Naphthylmethyl)-3-(N-methyl-N-methoxycarbonylmethylcarbamoyl)propionyl]-L-histidyl-statylisoamylamide], the IC50 (on human renin [2]; in assay [3]) was 35 nM throughout.

Take `COC(=O)CC(Cc1cccc2ccccc12)C(=O)N[C@@H](Cc1c[nH]cn1)C(=O)N[C@@H](CC(C)C)[C@@H](O)CC(=O)NCCC(C)C` (stereo partly drawn) [N-[3-(methoxycarbonyl)-2-(1-naphthylmethyl)propionyl]-L-histidyl-statylisoamylamide]: the IC50 on human renin [2] is 37 nM; in assay [3] it was 60 nM.
